From PMC9246869, “Allosteric inhibition of PPM1D serine/threonine phosphatase via an altered conformational state” (Nature Communications, 2022) come the findings set out here.

Data set [1] has as its target T1, PPM1D1–420 (Homo sapiens, UniProt O15297).
T1 construct: PPM1D1–420 was PCR-amplified from the synthesized gene with BsaI sites; His(6)-SUMO (N, cleaved yes); made in house; host or cells: E. coli BL21 (DE3)
T1 sequence (O15297 1-420): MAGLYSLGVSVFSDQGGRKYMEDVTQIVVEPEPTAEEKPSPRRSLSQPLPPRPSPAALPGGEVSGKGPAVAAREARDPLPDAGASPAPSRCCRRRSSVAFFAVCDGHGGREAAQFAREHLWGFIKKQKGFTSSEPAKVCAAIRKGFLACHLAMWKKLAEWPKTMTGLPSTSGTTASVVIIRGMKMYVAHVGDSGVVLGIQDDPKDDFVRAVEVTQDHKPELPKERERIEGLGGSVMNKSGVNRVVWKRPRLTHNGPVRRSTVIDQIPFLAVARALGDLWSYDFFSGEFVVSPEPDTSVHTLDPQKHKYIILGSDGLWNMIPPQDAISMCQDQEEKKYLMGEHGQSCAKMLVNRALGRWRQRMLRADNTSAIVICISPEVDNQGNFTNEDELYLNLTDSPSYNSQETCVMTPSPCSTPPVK
The experiment in a line: Surface plasmon resonance (SPR). Format: binding. The procedure:
SPR was carried out on the Biacore S200 (GE Healthcare) using Series S sensor chip NTA (GE BR-1005-32). The preparation of the chip surface was conducted according to the manufacturer’s indications. The running buffer contained 50 mM Tris (pH 7.5), 50 mM NaCl, 1 mM MgCl2, 0.5 mM TCEP, 0.005% (v/v) P20 surfactant, and 2% DMSO. PPM1D1–420 and PPM1D∆Flap were run under single-cycle mode due to the slow-off-rate kinetics. The two proteins were immobilized on the chip surface in flow cells 2 and 3 with a signal of ~1500–2000 RU at a rate of 5 μL/min while flow cell 1 was left blank as a reference. The running buffer was injected three times followed by the GSK2830371 analyte in solution. Injections were carried out at a flow rate of 50 μL/min with the analyte in a concentration series of 5-point, 3-fold ending at 400 nM top dose. The association and dissociation phases were monitored for 90 s and 600 s, respectively. Collected data were evaluated using the Biacore S200 Evaluation Software under 1:1 binding mode. PPM1D∆Hinge was run under multi-cycle mode due to its fast-on/fast-off kinetics. The protein was immobilized to give a signal of ~ 3000 RU. GSK2830371 analyte in solution was injected at a flow rate of 90 μL/min in a 10-pt, 2-fold concentration series ending at 15 μM top dose. The association and dissociation phases were monitored for 45 s and 150 s, respectively. Since GSK2830371 had issues with solubility/aggregation at high concentrations that caused artifacts in sensorgrams, only steady-state analysis was performed to extract Kd.
A general note: SPR reads the build-up and loss of mass on a sensor chip optically.

In data set [2] the target is T1, PPM1D1–420. The experiment in a line: p38 MAPK enzymatic assay (LC/MS, dephosphorylation of T180). The following applies: PPM1D1–420; full length p38 MAPK substrate, LC/MS. Format: biochemical. The procedure: To generate the double phosphorylated form of p38 MAPK for the LC/MS enzymatic PPM1D assay, 20 µM p38 MAPK was incubated with 100 nM MKK6 in 50 mM HEPES pH 7.4, 10 mM ATP, 40 mM MgCl2, and 100 µM TCEP at RT for 2 h. The reaction mixture was diluted 2-fold with 20 mM HEPES pH 7.4, 300 mM NaCl, 100 µM TCEP, and 1 mM MgCl2 and passed over a Superdex 200 26/600 column equilibrated with 20 mM HEPES pH 7.4, 150 mM NaCl, 100 µM TCEP, and 1 mM MgCl2 to remove excess ATP and MKK6 from the phosphorylated p38 MAPK (p38PP) protein. The protein was concentrated and stored in aliquots for single time usage at −80 °C.
The enzymatic activity of the PPM1D constructs was measured by quantifying the dephosphorylation of the substrate protein p38PP by LC/MS. Assays were run in 384-well plates (Axygen; #P-384-120SQ-C) in a final volume of 80 µL per well. The buffer consisted of 20 mM HEPES, 20 mM NaCl, 20 mM MgCl2 and 0.1 mM TCEP, at a pH of 7.5. The reaction was initiated by addition of the p38PP substrate to a solution containing 10 nM PPM1D to a final concentration of 300 nM for p38PP. The plate was then incubated at room temperature and the reaction quenched after 15 min increments with formic acid to a final concentration of 6% (v/v) up to 120 min. For IC50 measurements, the GSK2830371 compound was pre-incubated with the PPM1D constructs in a 2% DMSO-containing buffer for 10 min prior to the addition of the substrate and the reactions were quenched after 2 h. In both experiments, BSA was added to a final concentration of 0.2 µM during the quench step as a carrier protein and injection control for the LC/MS. The plate was then sealed and spun down at 1500 × g for 1 min prior to LC/MS analysis. Plates were analyzed within the same day of the quench step.
Substrate and product detection was achieved by multiple-reaction monitoring (MRM) using a Waters Acquity UPLC chromatography system connected to an Xevo TQ-XS mass spectrometer (Waters, Milford, MA). Source parameters were set as follows: polarity ES+, capillary 2.0 kV, cone voltage, 50 V; collision energy, 5 V; cone gas flow, 200 L/h; collision gas flow, 0.16 mL/min; source temperature, 150 °C; desolvation temperature, 500 °C; and desolvation gas flow, 800 L/h. Analytes were separated using an Agilent PLRP-S Reversed-Phase column (5 µm; 2.1 × 50 mm, 300 Å Agilent Technologies, Santa Clara, CA) at 60 °C. Sample storage temperature was set to 15 °C. Mobile phases consisted of 0.1% (v/v) formic acid (Millipore EMSURE) in LC/MS grade water (JTBaker) and 0.1% v/v formic acid in acetonitrile (Honeywell). Initial column conditions were set to […]. Proteins were eluted using a 1.5 min gradient of 5–98% acetonitrile at 0.4 ml/min. MassLynx and TargetLynx software (Waters, version 4.2) were used for sample acquisition and data analysis, respectively. Analytes were quantified by integration of peak areas under the curve using the transitions 941.10 to 941.05 m/z for P38PP (substrate) and 939.10 to 939.09 m/z for P38P (product). Areas were normalized for instrumental variation by dividing by the BSA peak area (1209.23 to 1209.2 m/z transition) measured in the same well.

Data set [3] addresses T1, PPM1D1–420. The experiment in a line: Isothermal titration calorimetry (ITC). Format: binding. As to conditions: PPM1D1–420; 25 °C. The procedure:
Assessments of the analog of GSK2830371 (analog 1d) binding to wild-type and mutant proteins were conducted using an Auto-iTC200 microcalorimeter (Malvern) (see section on synthesis of analog 1d below). The protein was dialyzed extensively into 25 mM HEPES (pH 7.4), 150 mM NaCl, 10 mM MgCl2 and 1 mM TCEP. The dialyzed protein was used to prepare fresh working solutions of protein (20 µM) and analog 1d (200 µM) in 2% DMSO (v/v) in the same buffer. Titrations were performed at 25 °C and consisted of a single initial injection of 0.4 µL, followed by 19 injections of 2 µL of compound into a sample cell containing wild-type or mutant PPM1D, with an interval of 150 s between successive injections. The reference power and stirring speed were set at […] and 1000 RPM, respectively. Heat of dilution and mixing were obtained from injections of analog 1d into ITC buffer lacking protein and subtracted from the integrated data before curve fitting. Thermodynamic data were analyzed using Origin 7.0 software and fitted by non-linear regression to the model for a single binding site.
A general note: Isothermal titration calorimetry measures the heat released or taken up as one component is titrated into another.

A short description of a further data set: Solubility. In kind it is physicochemical.

Several values for one entry are separate records, joined by “and”; a condition that tells them apart may be missing. Equal values may be shown once.

Regarding `NCCCCNC(=O)[C@H](CC1CCCCC1)NC(=O)c1ccc(CNc2cc(Cl)ccn2)s1` [analog 1d], the Kd is 2.7 nM at PPM1D1–420 [1] (PPM1D1–420, single-cycle kinetics for GSK2830371, read-out: Kd (SPR)); 10.9 nM and 10 nM on PPM1D1–420 [3]. In addition, the koff at PPM1D1–420 [1] (SPR kinetics fit, Sup Fig 3B, read-out: koff) was found to be 0.0015 s⁻¹. In addition, the kon on PPM1D1–420 [1] (SPR kinetics fit, Sup Fig 3B, read-out: kon) was determined as 578000 M⁻¹ s⁻¹. The “Steady state curve response” value on PPM1D1–420 [1] (SPR steady state, [1d] (nM) 4.94E-09) is on record as 2.128. Moreover, at PPM1D1–420 [2], the IC50 came to 22.4 nM. In the data set “Solubility”, this compound returned a solubility greater than 100 µM.

Usually Kd stands for the constant that tells how readily two partners part at equilibrium. The term koff denotes a measure of how fast the partners let go of each other. Usually kon stands for a measure of how fast the partners come together. In general, IC50 refers to the concentration at which inhibition is half-maximal. One may read the solubility as the dissolved amount per volume that the medium holds. A high value points to a readily soluble substance.
